Measured values taken from patent US8592428B2 (MSD K. K., priority 2008, dated 2013).
Converted amounts (≈) assume the structure as drawn.

How the values were obtained:
[1] = Solubility in water by solution precipitation method (HPLC); type: physicochemical; details: water (2% DMSO), kinetic from dmso stock, from 10 mM DMSO solution, 60 minutes stirring at room temperature, compounds of the present invention
Method: For solubility in water, the solubility of a compound in water was determined by a solution precipitation method.
For an HPLC system, Agilent HPLC 1100 system was used. […] For a shaker, Microincubator M-36 (Taitec) was used. For a plate, a 96-deep well plate (Nunc. 260252) was used. For a well cap, Pre-Slit Well Cap for 96 Well PP (NALGENE. 276011) was used. For a filtration plate, MultiScreen Solubility (Millipore; MSSLBPC10) was used. For dispensation, an 8-channel electronic multipipette, Biohit Proline (Biohit), and a 96-well automatic pipetting device, Biomeck 2000 (Biomeck) were used. For a reagent used, a pure solvent for DMSO ultraviolet absorption spectrum (Dojindo 349-01025) and water (MiliQ water, manufactured by Millipore).
For a DMSO solution, a sample was prepared with DMSO to be precisely 10 mM.
Precise dispensation of 10 μL of a DMSO solution into each well of a 96-well plate was performed. Following addition of 490 μL of water to each of the wells and plate-sealing with 96-well Cap (Agilent No. 5042-1389), intense stirring processing of the plate was performed for 60 minutes at room temperature on a shaker. Subsequently, 200 μL of a treatment sample was added to a plate for centrifugal filtration, and centrifugal filtration of the sample was performed to obtain a filtrate. A sample solution was made by adding 200 μl, of a 50% aqueous acetonitrile solution to the provided filtrate.
Precise dispensation of 10 μL of a DMSO solution into each well of a 96-well plate was performed.
Detection was performed using a multi-wavelength detector (190-370 nm). For a column, the above-mentioned column was used at 40° C. A flow rate was set at 1.2 ml/min, and an amount of an injected sample at 20 μL. For a moving phase, a 0.1% aqueous phosphoric acid solution as a liquid A and acetonitrile as a liquid B were used to carry out analyses in accordance with a time schedule described below.
For the analyses, the data of UV 275 nm were adopted. […] Using the calibration curve, regression calculation of concentrations in water was carried out from Area of sample solutions (water).

[2] = biological target: T1, recombinant human liver GK (Homo sapiens, UniProt P35557); assay: Glucokinase-activating effect (Thio-NADH coupled G6PDH assay); type: biochemical; details: final glucose concentration 2.5 mM, 30° C.; for Emax: OD level of DMSO control = 100%
T1 construct: made in house; host or cells: E. coli
T1 sequence (P35557 1-466 isoform P35557-2): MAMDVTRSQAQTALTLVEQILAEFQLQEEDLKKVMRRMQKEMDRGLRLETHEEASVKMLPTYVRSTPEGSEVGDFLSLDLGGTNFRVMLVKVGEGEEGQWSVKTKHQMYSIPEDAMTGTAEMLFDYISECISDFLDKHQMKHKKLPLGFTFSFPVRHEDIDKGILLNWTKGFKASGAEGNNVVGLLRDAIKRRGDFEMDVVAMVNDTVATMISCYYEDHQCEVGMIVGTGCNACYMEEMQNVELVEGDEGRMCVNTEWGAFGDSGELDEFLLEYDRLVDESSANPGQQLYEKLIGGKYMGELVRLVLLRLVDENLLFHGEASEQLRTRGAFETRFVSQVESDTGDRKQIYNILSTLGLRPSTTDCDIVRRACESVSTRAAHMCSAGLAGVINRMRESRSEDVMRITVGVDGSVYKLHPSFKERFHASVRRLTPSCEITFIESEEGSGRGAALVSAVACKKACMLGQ
Description: The excellent glucokinase-activating effect of the compounds of formula (I) may be determined by a method described in literature (for example, Diabetes, Vol. 45, pp. 1671-1677, 1996), or in accordance with it.
The glucokinase activity may be determined not by directly measuring glucose-6-phosphate but by measuring the level of Thio-NADH, which is produced when a reporter enzyme, glucose-6-phosphate dehydrogenase produces phosphogluconolactone from glucose-6-phosphate, and based on the level, the degree of glucokinase activation by the compound tested may be determined.
In this assay, used was a recombinant human liver GK, which was expressed by E. coli as a FLAG fusion protein therein and was purified by […] M2 AFFINITY GEL (Sigma).
Using a flat-bottomed 96-well plate, the assay was carried out at 30° C. 69 μl of an assay buffer (25 mM Hepes Buffer/pH=7.2, 2 mM MgCl2, 1 mM ATP, 0.5 mM TNAD, 1 mM dithiothreitol) was put into the plate, and 1 μl of a DMSO solution of the compound or DMSO alone as a control was added thereto. Next, 20 μl of an enzyme mixture (FLAG-GK, 20 U/ml G6PDH) cooled in ice was added to it, and 10 μl of a substrate, 25 mM glucose was added to it, and the reaction was initiated (final glucose concentration=2.5 mM).
After the start of the reaction, the increase in the absorbance at 405 nm was measured for 12 minutes at intervals of 30 seconds, and the increase for the first 5 minutes was used for assessing the compound tested. FLAG-GK was added so that the absorbance increase after 5 minutes in the presence of 1% DMSO could be from 0.04 to 0.06.
The OD level of the DMSO control was set as 100%; and the OD level of the test compound at different concentrations was determined. From the OD level at each concentration, Emax (%) and EC50 (μM) were computed and used as the index of the GK-activating potency of the compound.

Structure (SMILES)	solubility at 60 min [1] [µM]	Emax [2] [%]	EC50 [2] [nM]
CC(=O)N1CCC[C@@H]1c1cc2[nH]c(-c3cnc(C)cn3)cc2cc1Oc1ccc(OCCO)nc1 [Example 13, 6-[(R)-1-acetylpyrrolidin-2-yl]-5-[6-(2-hydroxyethoxy)pyridin-3-yloxy]-2-(5-methylpyrazin-2-yl)-1H-indole]	93.7 (≈ 44.4 µg/mL)	995	230
COCc1ccc(Oc2cc3cc(-c4ccc(CO)cn4)[nH]c3cc2[C@H]2CCCN2C(C)=O)cn1 [Example 15, 6-[(R)-1-acetylpyrrolidin-2-yl]-2-(5-hydroxymethylpyridin-2-yl)-5-(6-methoxymethylpyridin-3-yloxy)-1H-indole]	168 (≈ 79.4 µg/mL)	849	130
COCc1ccc(Oc2cc3cc(-c4cnc(CO)cn4)[nH]c3cc2[C@H]2CCCN2C(C)=O)cn1 [Example 16, 6-[(R)-1-acetylpyrrolidin-2-yl]-2-(5-hydroxymethylpyrazin-2-yl)-5-(6-methoxymethylpyridin-3-yloxy)-1H-indole]	> 170		170
COCc1ccc(Oc2cc3cc(-c4cnccn4)[nH]c3cc2[C@H]2CCCN2C(C)=O)cn1 [Example 17, 6-[(R)-1-acetylpyrrolidin-2-yl]-5-(6-methoxymethylpyridin-3-yloxy)-2-(pyrazin-2-yl)-1H-indole]	> 170	988	80
CCNC(=O)c1ccc(Oc2cc3cc(-c4cnccn4)[nH]c3cc2[C@H]2CCCN2C(C)=O)cn1 [Example 26, 6-[(R)-1-acetylpyrrolidin-2-yl]-5-[6-(N-ethylcarbamoyl)pyridin-3-yloxy]-2-(pyrazin-2-yl)-1H-indole]	129 (≈ 60.7 µg/mL)	942	160
CCN(CC)C(=O)c1ccc(Oc2cc3cc(-c4cnccn4)[nH]c3cc2[C@H]2CCCN2C(C)=O)cn1 [Example 27]	> 170	957	120
CC(=O)N1CCC[C@@H]1c1cc2[nH]c(-c3cnccn3)cc2cc1Oc1ccc(C(=O)N(C)CCO)nc1 [Example 28]	> 170		100
